The source of these data is patent US4784988A, “Peptides correlated to lysozyme” (Spa Societa' Prodotti Antibiotici S.p.A., priority 1985, dated 1988).

Where no end group is shown, it is not given here.

Data set [1] is classed as physicochemical. On the procedure: Having obtained the desired peptide sequence, it is then necessary to proceed with the splitting from the solid support and deprotection of the residual functional groups, which is carried out by action of gaseous hydrobromic acid on the peptide-resin suspension, working in trifluoroacetic acid and in presence of adequate quantities of anisole.

Another data set has as its system hyperalgesia of the paw. Put plainly: Randall-Selitto test, painful threshold on compression of the paw made hyperalgesic with brewer's yeast. Format: in vivo, rats. The conditions noted are these: rat, brewer's yeast 10 mg/rat, product injected in the paw, after 3 hours, vs irritant alone. The text has this: With regard to the biological activity of the peptide mixtures obtained by enzymatic hydrolysis of lysozyme, like many of the peptides isolated at the pure state and/or reproduced through synthesis, it is observed, as previously reported, that they lack the bacteriolytic activity typical of the integral lysozyme structure, whereas they present important pharmacological and therapeutic properties. It was therefore possible for example to evidence a marked analgesic activity of numerous peptides, by testing their anti-nociceptive effects on laboratory animals using the well-known Randall-Selitto method.
In groups of 5-10 rats, hyperalgesia of the paw is induced by administering an irritant agent, for example brewer's yeast (10 mg/rat), into the planter aponeurosis and at the same time injecting the product under test at different doses. One group of rats is treated with the irritant agent alone. At intervals, in particular after 3 hours, the painful threshold on compression of the edematous paw is measured, i.e. the minimum pressure (in g) causing the sudden withdrawal of the paw of the animal.
The results are expressed as percentage increase in the mean painful threshold compared to the paw treated with the algogenic agent alone (without the drug). As an example, the data relative to the peptide mixture denominated "Fraction P.2" of chromatographic origin (See Scheme 1) are reported, as well as the individual peptides (I), (II) and (III).

The test system of another data set is herpes simplex Type 1. Nature of the data set: herpes simplex virus plaque formation on Vero cell monolayers. Format: cell-based. Particulars: herpes simplex Type 1, Vero cells, 72 hours' incubation. Here is the method: Yet other example, the mixture and the peptides of the present invention resulted active in an antiviral sense in numerous cases. They were submitted to various tests to verify their influence on the capacity of the herpes simplex virus to infect and form plaques on monolayer cell cultures. To this purpose, a viral strain of herpes simplex Type 1 at suitable concentration was added to monolayers of Vero cells (Flow). After being in contact for 1 hour, the virus was removed and the monolayer washed and then covered with fresh culture medium […] (Flow), adding at the end suitable quantities of the substance under test. After 72 hours' incubation, the plates were coloured with neutral red and the visible plaques counted. […] Similar results were obtained with a peptide fraction isolated in an analogous manner after hydrolysis of lysozyme with trypsin and chymotrypsin. Even more surprising results were obtained with peptides such as (I) or (III) which resulted capable of inducing analogous reductions in the viral plaque-forming units at considerably lower concentrations (0.1-1 mg/ml).

Data set [2] deals with cell colony-forming capacity. Format: cell-based.

Take NTDGSTDY [peptide (II)]: in data set [1], the solubility in water entry is “very soluble in water”. In addition, the “Δ% of the algogenic threshold” value in the data set with hyperalgesia of the paw (dose 0.5 mg/rat) amounted to 30%; in the data set with hyperalgesia of the paw (dose 0.75 mg/rat) it was 60%; in the data set on hyperalgesia of the paw (dose 1 mg/rat), 90%.
Consider NTQATNR [peptide (III)], for which the “concentration inducing analogous reductions in the viral plaque-forming units” value in the data set with herpes simplex Type 1 is reported as 0.1-1 mg/ml. Moreover, the results for the “Δ% of the algogenic threshold” value in the data set on hyperalgesia of the paw (dose 1 mg/rat), with hyperalgesia of the paw (dose 2 mg/rat) and with hyperalgesia of the paw (dose 4 mg/rat) were 30%, 60% and 100%, respectively. The “cytotoxic effects (cell colony-forming capacity)” value in data set [2] is on record as “devoid of cytotoxic effects”.
NTQATNRNTDGSTDY [peptide (I)]: the “concentration inducing analogous reductions in the viral plaque-forming units” value with herpes simplex Type 1 is given as 0.1-1 mg/ml. In the data set on hyperalgesia of the paw (dose 2 mg/rat), the “Δ% of the algogenic threshold” value came out at 120%. Also, the “cytotoxic effects (cell colony-forming capacity)” value in data set [2] is recorded as “devoid of cytotoxic effects”.
Turning to “lysozyme: small globular protein of 129 amino acid residues extracted from hen egg-white”, the “inhibition of the viral capacity to form plaques” value in the data set on herpes simplex Type 1 (5 mg/ml) is 75%.
